Data: patent USH505H, “Boron uptake in tumors, cerebrum and blood from [10B]NA4B24H22S2” (The United States of America as represented by the United …, priority 1986, dated 1988)

System: Harding-Passey (HP) melanomas
Experiment: Boron concentrations in melanoma tumor, blood and cerebrum of mice after intraperitoneal administration (prompt gamma analysis)
Design: species or system female BALB/cJ mice
Conditions: mouse, in vivo, ip
Method: Aqueous solutions of [^10 B]Na2 B12 H11 SH or [^10 B]Na4 B24 H22 S2 were infused slowly intraperitoneally [~200 μl capacity osmotic pump, model 2001, Alza Corp., Palo Alto, Calif.] or were injected intraperitoneally promptly into 15-20 g female BALB/cJ mice bearing subcutaneously implanted Harding-Passey (HP) melanomas. In experiment 6 (Table 1), 5.3×10^-3 M Na2 S2 O5 was added to retard oxidation of [B12 H11 SH]^2-. Mice were deeply anesthetized with ether and then killed by exsanguination at times specified in Table 1. The osmotic pumps were designed to function for 219±6 hr, although the precise duration of their infusion in each mouse is unknown.
Tissue and blood specimens in quartz test tubes, with sufficient H2 O added to bring each sample to a total weight of 1.00 g, were analyzed for boron by counting 478 keV gamma photons from the ^10 B(n,αγ)^7 Li reaction during irradiation by slow neutrons.

In the case of Na2 B12 H11 SH, the Blood boron concentration (34.5 mg/kg, 24 h) is reported as 6.3 ± 2.2 μgB/g, the Cerebrum boron concentration (34.5 mg/kg, 24 h) is reported as 4.9 ± 3.8 μgB/g and the “Concentration ratio Tumor:Blood” value (34.5 mg/kg, 24 h) is reported as 1.0. The Tumor boron concentration (34.5 mg/kg, 24 h) was 6.3 ± 2.2 μgB/g, the Blood boron concentration (35.4 mg/kg, 6 h) was 3.8 ± 9.9 μgB/g and the Cerebrum boron concentration (35.4 mg/kg, 6 h) was 3.8 ± 3.4 μgB/g. The “Concentration ratio Tumor:Blood” value (35.4 mg/kg, 6 h) was 2.3, the Tumor boron concentration (35.4 mg/kg, 6 h) was 8.7 ± 9.9 μgB/g and the Blood boron concentration (35.5 mg/kg, 12 h) was 5.5 ± 4.8 μgB/g. The Cerebrum boron concentration (35.5 mg/kg, 12 h) was 0.9 ± 1.6 μgB/g, the “Concentration ratio Tumor:Blood” value (35.5 mg/kg, 12 h) was 1.0 and the Tumor boron concentration (35.5 mg/kg, 12 h) was 5.5 ± 4.8 μgB/g. For the same substance, the Blood boron concentration (187 mg/kg, 190 h) was 13.2 ± 6.3 μgB/g, the Cerebrum boron concentration (187 mg/kg, 190 h) was 7.0 μgB/g and the “Concentration ratio Tumor:Blood” value (187 mg/kg, 190 h) was 1.0. The Tumor boron concentration (187 mg/kg, 190 h) was 12.6 ± 1.7 μgB/g, the Blood boron concentration (187 mg/kg, 219 h) was 4.9 ± 1.1 μgB/g and the Cerebrum boron concentration (187 mg/kg, 219 h) was 1.0 ± 0.4 μgB/g. For the same substance, the “Concentration ratio Tumor:Blood” value (187 mg/kg, 219 h) was 1.6, the Tumor boron concentration (187 mg/kg, 219 h) was 7.9 ± 1.5 μgB/g and the Blood boron concentration (195 mg/kg, 219 h) was 5.5 ± 3.0 μgB/g. The Cerebrum boron concentration (195 mg/kg, 219 h) was 1.2 ± 1.0 μgB/g, the “Concentration ratio Tumor:Blood” value (195 mg/kg, 219 h) was 1.5 and the Tumor boron concentration (195 mg/kg, 219 h) was 8.5 ± 2.9 μgB/g. The Blood boron concentration (262 mg/kg, 234 h) was 7.7 ± 4.6 μgB/g, the Cerebrum boron concentration (262 mg/kg, 234 h) was 3.2 ± 0.0 μgB/g and the “Concentration ratio Tumor:Blood” value (262 mg/kg, 234 h) was 1.8. For the same substance, the Tumor boron concentration (262 mg/kg, 234 h) was 14.1 ± 1.1 μgB/g.
